Legend:
GFP-LC3B K51A = assay: Co-immunoprecipitation with GFP-LC3B K51A; type: binding, human; details: α-GFP IP, Western blot
Method: (§1) Cells were scraped, centrifuged at 500 g for 5 min, and lysed in 150 µL CHAPS lysis buffer (2% CHAPS, 1% Triton X-100, 137 mM NaCl, 2 mM EDTA, 10% glycerol, and 20 mM Tris-HCl, pH 8.0) containing protease and phosphatase inhibitors. 5 µL of total lysate was kept as Input sample and 145 µL of cell lysate was incubated with 12.5 µL α-GFP (1:40, Roche)-coupled Dynabeads Protein G (purchased from Invitrogen) for 2 hrs at 4 °C. This step was followed by three washing steps using 0.02% Tween-20/PBS and immunoprecipitated proteins were eluted from Dynabeads by adding 4X LDS buffer (purchased from Invitrogen) and 10X sample reducing agent (purchased from Invitrogen) to the beads. Heating at 70 °C for 10 min will denaturized the proteins to analyze them by Western blotting.

EGFP-LC3B K49A = assay: Co-immunoprecipitation with EGFP-LC3B K49A; type: binding, human; details: Figs S3 and S7; vs wild type LC3B
Method: as §1

GFP-LC3B wild type = assay: Co-immunoprecipitation with GFP-LC3B wild type; type: binding, human; details: α-GFP IP, Western blot
Method: as §1

GST-LC3B [1] = assay: GST pull-down with GST-LC3B wild type; type: binding, human; details: for interaction with GST-LC3B wild type: Flag-Nix in cell lysate, Fig. 3a; for interaction with GST-LC3B: Fig. 1b, triplicates
Method: (§2) GST fusions of various proteins (pGEX plasmids) were expressed in BL21 E. coli. Fusion protein expression was induced by adding 0.5 mM IPTG for 4 hrs. Bacteria were lysed in 20 mM Tris-HCl, pH 7.5, 10 mM EDTA, pH 8.0, 5 mM EGTA, 150 mM NaCl supplemented with 2 mg/ml lysozyme. GST fusion proteins were subsequently bound to pre-washed Glutathione-Sepharose 4B beads (GE Healthcare). After several washes, fusion protein-bound beads were used directly in binding assays.
(§3) HEK293 or HeLa cells were transfected with expression constructs encoding the protein of interest using JetPRIME (Polyplus Transfection). 24 hrs post-transfection cells were lysed in 50 mM HEPES, pH 7.5, 150 mM NaCl, 1 mM EDTA pH 8.0, 1 mM EGTA, 10% glycerol, 1% Triton X-100, 25 mM NaF, […] and lysates were incubated for 4 hrs with immobilized GST-fusion proteins at 4 °C. Following 5 washes, beads with co-precipitated proteins were resuspended in 2x SDS-PAGE loading buffer, boiled and loaded onto 10% or 12% SDS-PAGE gels for analysis. All GST pull-down experiments were performed in triplicates.

GST-LC3B K49A = assay: GST pull-down with GST-LC3B K49A; type: binding, human; details: Fig. 3a, vs wild type LC3B
Method: as §2, §3

[2] = test system: HeLa cells expressing GFP-LC3B wild type; assay: Colocalization / sequestration of mitochondria with GFP-LC3B wild type, fluorescence microscopy; type: cell-based; details: Fig. 4a
Method: (§4) HeLa cells were seeded, grown on coverslips or 8-well microscopy slides (ibidi) and transfected with either wild type or mutant Nix or Bnip3 together with wild type or mutant LC3B constructs using JetPRIME transfection reagent according to manufacturer’s instructions. 24 hrs post transfection cells were fixed in 2% or 4% paraformaldehyde and permeabilized with 0,1% Triton X-100 solution. Cells were blocked in 5% BSA/PBS/0.1% Triton X-100 for 1 hr at room temperature or 4 °C overnight. Primary and secondary antibodies were diluted in blocking solution and washed in 0,1% Triton X-100/PBS. Coverslips were mounted in Prolong mounting media (Invitrogen). Cells in 8-well microscopy slides were placed in PBS following staining. Cells were imaged using a Zeiss AxioVision or DeltaVision RT microscope system (Applied Precision). Quantification of Nix-LC3B colocalization was performed as follows: for each Nix construct, LC3B positive dots (signals) were numbered in 100 cells. Only clear and well-defined LC3B signals are taken into consideration, while weak and oversized signals were excluded from the analysis.
HeLa cells were plated in 8-well microscopy µ-slides (ibidi) were transfected GFP-LC3 and RFP-Nix WT, S34,35A or S34,35E. From Z-stacks, single cells were cropped for analysis by ImageJ. Binary masks for each slice within ≥10 representative Z-stacks per condition of (i) Nix-labeled mitochondria and (ii) GFP-LC3 were generated by image segmentation. Slice-by-slice co-localization of mitochondrial and AV masks were calculated using the Boolean AND function. All slices for each binary stack were summed, and the ratio of area calculated from mitochondrialy-localized AV over total mitochondria content is reported as a cellular fraction.

[3] = test system: HEK293 cells (mitochondrial loss); assay: Mitochondrial removal by flow cytometry; type: cell-based; details: HEK293, GFP-Nix, 10 μM CCCP 24 hours; vs wild type
Method: HEK293 cells were transfected with GFP expression constructs encoding the protein of interest using JetPRIME (Polyplus Transfection). 24 hrs post-transfection cells were treated with 10 µM CCCP for 24 hrs. After treatment, cells were washed with PBS, trypsinized with trypsin for 5 min and resuspended by gentle pipetting. Trypsin-mediated digestion was arrested by the addition of DMEM supplemented with 10% FBS and cells were centrifuged at 500 g for 5 min. To remove cell clumps, cells were resuspended in PBS and filtered through the 70 µm Cell Strainer (BD Falcon). Approximately 10^6 cells were acquired for further flow cytometry analysis. Before fixation, cells were washed twice with FACS buffer (2% FBS, 0,02% NaN3 in PBS) and each time centrifuged at 500 g for 5 min. Cells were fixed with freshly prepared 4% paraformaldehyde for 10 min at room temperature, washed twice with FACS buffer and finally resuspended in […] prior to analysis. […] The acquired data were gated for singlets by generating FSC-A vs FSC-H plot after which dead cells were excluded and the mean fluorescence in FL1 channel was collected. The mean fluorescence of the CCCP and CCCP/Baf treated samples was compared with the untreated control and the results were expressed as a percentage of the retained mitochondria of at least two independent experiments. Results were analyzed using FlowLogic software.

[4] = test system: HeLa cells (recruitment of LC3B to mitochondria); assay: LC3B positive vesicles per 100 cells, immunofluorescence microscopy; type: cell-based; details: 10 µM CCCP for 2 hours, vs wild type and S34,35A, three independent experiments, Fig. 3b
Method: as §4

[5] = test system: HeLa cells expressing GFP-LC3B K51A; assay: Colocalization with GFP-LC3B K51A, fluorescence microscopy; type: cell-based; details: Fig. 4d,e
Method: as §4, with “Only clear and well-defined LC3B signals are taken into consideration, while weak and oversized signals were excluded from the analysis.” left out
HeLa cells were plated in 8-well microscopy µ-slides (ibidi) were transfected GFP-LC3 and RFP-Nix WT, S34,35A or S34,35E. […] Slice-by-slice co-localization of mitochondrial and AV masks were calculated using the Boolean AND function. All slices for each binary stack were summed, and the ratio of area calculated from mitochondrialy-localized AV over total mitochondria content is reported as a cellular fraction.

[6] = test system: cells expressing LC3B K49A; assay: Colocalization with LC3B K49A, fluorescence microscopy; type: cell-based; details: vs wild type LC3B
Method: as §4

GST-LC3A = assay: GST pull-down with GST-LC3A; type: binding, human; details: Fig. 1b, triplicates
Method: as §2, §3

EGFP-LC3B R11A = assay: Co-immunoprecipitation with EGFP-LC3B R11A; type: binding, human; details: α-GFP IP, 24 hrs post transfection, Fig. S5a
Method: as §1

EGFP-LC3B R10A = assay: Co-immunoprecipitation with EGFP-LC3B R10A; type: binding, human; details: α-GFP IP, 24 hrs post transfection, Fig. S5a
Method: as §1

GST-LC3B [7] = details: ref [17]; cited from earlier work
Method: Recently, it was determined that phosphorylation of serine residues juxtaposed to the LIR motif is responsible for the activation of receptor functions for Optn and Bnip3[5],[14]. […] Therefore, we mutated Ser34 and Ser35 in Nix to alanine, glutamic acid or aspartic acid re ...

LC3B wild type = molecular target: T1, LC3B wild type (Homo sapiens, UniProt Q9GZQ8); assay: Isothermal titration calorimetry (ITC), LC3B wild type; type: binding
T1 construct: Ub3 (ubiquitin fusion) (N); made in house
Method: (§5) Before the experiment, the proteins and peptides were equilibrated with a buffer containing 40 mM Na2HPO4, 80 mM NaCl at pH 7.0, and supplied with 5 mM protease inhibitors cocktail.
(§6) All titration experiments were performed at 25 °C using a VP-ITC microcalorimeter (MicroCal Inc., MA, USA). The ITC-data were analyzed with the ITC-Origin 7.0 software with a “one-site” binding model. The peptides at concentrations of 0.31 mM were titrated into 0.018 mM LC3B proteins in 25 steps. The proteins and peptides concentrations were calculated from the UV-absorption at 280 nm by Nanodrop spectrophotometer (Thermo Fisher Scientific, DE, USA).

LC3B K49A = molecular target: T2, LC3B K49A (Homo sapiens, UniProt Q9GZQ8, K49A); assay: ITC, LC3B K49A mutant; type: binding
T2 construct: Ub3 (ubiquitin fusion) (N); made in house
Method: as §5, §6

Bnip3 wild type: mitophagy receptor Bnip3, homolog of Nix [reference compound]
co-immunoprecipitation with GFP-LC3B K51A (GFP-LC3B K51A): does not | affinity to LC3B K49A (in words) (EGFP-LC3B K49A): increased affinity

Bnip3S17,24E: Bnip3 S17,24E mutant [reference compound]
co-immunoprecipitation with GFP-LC3B wild type (GFP-LC3B wild type): strongly bound | co-immunoprecipitation with GFP-LC3B K51A (GFP-LC3B K51A): absent

Nix S34,35A: Nix with serine-to-alanine mutations to disable phosphorylation
interaction with GST-LC3B wild type (GST-LC3B [1]): did not interact | interaction with GST-LC3B K49A (GST-LC3B K49A): strongly increased binding | targeting of mitochondria to LC3B autophagosomes / colocalization with GFP-LC3B [2]: lack of such a recruitment | targeting of mitochondria to LC3B autophagosomes / colocalization with GFP-LC3B ([2]; listed as RFP-Nix S34,35A): does not colocalize | co-immunoprecipitation with GFP-LC3B wild type (GFP-LC3B wild type): no interaction | mitochondrial loss (fraction of removed mitochondria), in words [3]: slightly reduced compared to wild type

Nix S34,35D: phosphomimetic Nix double mutant
recruitment of LC3B-positive vesicles [4]: increased recruitment of LC3B-positive vesicles compared to wild type and S34,35A

Nix S34,35E: phosphomimetic Nix double mutant
interaction with GST-LC3B wild type (GST-LC3B [1]): robustly bound | recruitment of LC3B-positive vesicles [4]: increased recruitment of LC3B-positive vesicles compared to wild type and S34,35A | targeting of mitochondria to LC3B autophagosomes / colocalization with GFP-LC3B [2]: enhanced targeting of mitochondria to LC3B autophagosomes relative to wild type Nix | targeting of mitochondria to LC3B autophagosomes / colocalization with GFP-LC3B ([2]; listed as S34,35E): enhanced colocalization | colocalization with GFP-LC3B K51A [5]: loss of cellular colocalization | colocalization with LC3B K49A [6]: increased | co-immunoprecipitation with GFP-LC3B wild type (GFP-LC3B wild type): strong interaction | co-immunoprecipitation with GFP-LC3B K51A (GFP-LC3B K51A): unable to immunoprecipitate | mitochondrial loss (fraction of removed mitochondria), in words [3]: more rapid

Nix S34E: single phosphomimetic Nix mutant
interaction with GST-LC3A (GST-LC3A): stronger than wild type Nix but weaker than the double serine phosphomimetic S34,35D Nix mutant | interaction with GST-LC3B (GST-LC3B [1]): stronger than wild type Nix but weaker than the double serine phosphomimetic S34,35D Nix mutant

Nix S35E: single phosphomimetic Nix mutant
interaction with GST-LC3A (GST-LC3A): stronger than wild type Nix but weaker than the double serine phosphomimetic S34,35D Nix mutant | interaction with GST-LC3B (GST-LC3B [1]): stronger than wild type Nix but weaker than the double serine phosphomimetic S34,35D Nix mutant

Nix wild type: mitophagy receptor Nix, wild type, expressed in cells
interaction with GST-LC3B (GST-LC3B [1]): considerably weaker than with LC3A | interaction with GST-LC3B K49A (GST-LC3B K49A; listed as Nix): increased affinity | interaction with GST-LC3B K49A (GST-LC3B K49A; listed as wild type Nix): strongly increased binding | targeting of mitochondria to LC3B autophagosomes / colocalization with GFP-LC3B [2]: shows colocalization | colocalization with GFP-LC3B K51A [5]: does not colocalize | co-immunoprecipitation with GFP-LC3B wild type (GFP-LC3B wild type): no interaction | co-immunoprecipitation with GFP-LC3B K51A (GFP-LC3B K51A): fails to coimmunoprecipitate | co-immunoprecipitation with LC3B R11A (EGFP-LC3B R11A): do not coimmunoprecipitate | co-immunoprecipitation with LC3B R10A (EGFP-LC3B R10A): do not coimmunoprecipitate | interaction rank of LC3B among Nix partners (GST-LC3B [7]): weakest

SQQGGWGTVFSLESEE [arbitrary LIR-similar peptide, residues 196–210 of the human protein BCL2L13 - analog of the yeast Atg32 protein]
affinity to wild type LC3B (in words) (LC3B wild type): weak | affinity to LC3B K49A (in words) (LC3B K49A): weak

Source: article PMC5430633, “Phosphorylation of the mitochondrial autophagy receptor Nix enhances its interaction with LC3 proteins” (Scientific Reports, 2017)
